In US20250282776A1, “Bicyclic TLR7 Agonists and Uses Thereof” (Bristol-Myers Squibb Company, priority 2024, published 2025):

Legend:
human TLR7 (hTLR7) = molecular target: T1, human TLR7 (hTLR7) (Homo sapiens, UniProt Q9NYK1); assay: Human TLR7 agonist activity assay (HEK-Blue TLR7 SEAP reporter); format: cell-based; conditions: HEK-Blue TLR7 cells, 18 h incubation, Quanti-Blue, OD 620 nm, some values average of multiple measurements
T1 construct: host or cells: HEK-Blue TLR7 cells (engineered human embryonic kidney cells)
T1 sequence (Q9NYK1 27-1049): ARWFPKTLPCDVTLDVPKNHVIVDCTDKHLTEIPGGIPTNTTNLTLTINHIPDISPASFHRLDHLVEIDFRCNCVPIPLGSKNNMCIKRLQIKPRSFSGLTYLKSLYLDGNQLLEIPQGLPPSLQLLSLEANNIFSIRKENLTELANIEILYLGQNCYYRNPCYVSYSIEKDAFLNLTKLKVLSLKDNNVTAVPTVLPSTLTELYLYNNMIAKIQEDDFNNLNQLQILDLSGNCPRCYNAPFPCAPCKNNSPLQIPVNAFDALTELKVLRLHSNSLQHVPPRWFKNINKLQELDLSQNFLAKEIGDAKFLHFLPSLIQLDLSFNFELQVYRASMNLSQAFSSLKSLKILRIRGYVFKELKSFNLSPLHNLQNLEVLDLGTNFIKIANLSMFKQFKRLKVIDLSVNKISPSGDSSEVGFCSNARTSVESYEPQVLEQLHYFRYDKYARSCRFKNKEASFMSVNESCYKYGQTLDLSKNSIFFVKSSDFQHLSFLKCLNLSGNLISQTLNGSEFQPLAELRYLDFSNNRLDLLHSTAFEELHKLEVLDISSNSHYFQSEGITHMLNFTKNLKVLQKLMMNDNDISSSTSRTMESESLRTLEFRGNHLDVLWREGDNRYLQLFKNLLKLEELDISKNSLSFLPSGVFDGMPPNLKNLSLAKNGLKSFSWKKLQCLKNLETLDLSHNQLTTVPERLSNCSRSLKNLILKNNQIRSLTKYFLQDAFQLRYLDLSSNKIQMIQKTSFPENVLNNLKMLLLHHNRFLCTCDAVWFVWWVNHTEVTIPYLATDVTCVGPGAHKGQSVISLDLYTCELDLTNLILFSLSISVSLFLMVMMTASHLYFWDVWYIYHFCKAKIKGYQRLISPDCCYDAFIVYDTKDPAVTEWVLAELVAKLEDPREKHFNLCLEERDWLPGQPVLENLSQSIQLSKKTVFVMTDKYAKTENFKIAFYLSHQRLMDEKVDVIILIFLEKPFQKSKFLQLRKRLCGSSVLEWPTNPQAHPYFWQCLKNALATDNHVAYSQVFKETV
Procedure, shortened: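 HEK-Blue TLR7 cells seeded 16-18 h, then exposed to compound for 18 h at 37 °C, 5% CO2. Secreted SEAP read with Quanti-Blue at OD 620 nm after 30 min. EC50 taken as concentration giving half-maximal response between baseline and maximum; some values averaged over repeats.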

human TLR8 (hTLR8) = molecular target: T2, human TLR8 (hTLR8) (Homo sapiens, UniProt Q9NR97); assay: Human TLR8 agonist activity assay (measured in a similar manner); format: cell-based; conditions: HEK-Blue TLR cells, SEAP reporter, measured in a similar manner to TLR7; some values average of multiple measurements
T2 construct: expressed in transfected cells
T2 sequence (Q9NR97 27-1041): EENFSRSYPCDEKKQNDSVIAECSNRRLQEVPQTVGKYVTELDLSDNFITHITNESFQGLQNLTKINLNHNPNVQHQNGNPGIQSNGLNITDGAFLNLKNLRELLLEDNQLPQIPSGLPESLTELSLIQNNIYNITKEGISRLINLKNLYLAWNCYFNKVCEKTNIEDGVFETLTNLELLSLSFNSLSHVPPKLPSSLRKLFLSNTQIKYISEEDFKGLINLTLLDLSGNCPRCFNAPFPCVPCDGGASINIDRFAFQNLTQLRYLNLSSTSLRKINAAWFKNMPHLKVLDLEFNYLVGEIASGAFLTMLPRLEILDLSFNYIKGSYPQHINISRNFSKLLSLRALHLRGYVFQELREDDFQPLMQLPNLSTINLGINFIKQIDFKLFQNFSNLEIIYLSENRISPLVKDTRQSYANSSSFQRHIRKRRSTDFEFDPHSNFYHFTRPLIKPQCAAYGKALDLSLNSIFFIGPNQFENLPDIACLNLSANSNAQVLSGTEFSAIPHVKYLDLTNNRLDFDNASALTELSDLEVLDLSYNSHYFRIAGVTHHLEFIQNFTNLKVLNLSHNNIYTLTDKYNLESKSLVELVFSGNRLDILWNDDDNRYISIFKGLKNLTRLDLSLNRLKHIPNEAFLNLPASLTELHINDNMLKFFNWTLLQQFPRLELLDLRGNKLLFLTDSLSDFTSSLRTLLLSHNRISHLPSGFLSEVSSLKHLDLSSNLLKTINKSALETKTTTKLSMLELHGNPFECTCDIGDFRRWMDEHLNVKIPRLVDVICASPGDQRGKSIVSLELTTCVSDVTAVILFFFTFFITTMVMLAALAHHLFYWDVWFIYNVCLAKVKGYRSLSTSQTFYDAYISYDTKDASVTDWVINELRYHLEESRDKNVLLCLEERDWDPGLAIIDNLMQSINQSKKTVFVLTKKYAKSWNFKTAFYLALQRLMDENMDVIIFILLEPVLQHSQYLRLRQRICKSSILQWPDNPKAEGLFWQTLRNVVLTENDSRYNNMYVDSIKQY
Procedure, shortened: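 Compounds were added to HEK-Blue TLR8 reporter cells, pre-incubated 16-18 h, then treated 18 h at 37° C, 5% CO2. SEAP output was measured with Quanti-Blue (30 min) at OD 620 nm. Some values are averages of multiple measurements.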

SMILES	EC50 (human TLR7 (hTLR7)) [µM]	EC50 (human TLR8 (hTLR8)) [µM]
CCCCN(CCO)c1nc(N)nc2cn(Cc3ccc(CN[C@@H]4CCOC4)n4ccnc34)nc12 [Compound 187, (R)-2-((5-Amino-2-((5-(((tetrahydrofuran-3-yl)amino)methyl)imidazo[1,2-a]pyridin-8-yl)methyl)-2H-pyrazolo[4,3-d]pyrimidin-7-yl)(butyl)amino) ethan-1-ol]	0.674	0.86
CCCCN(CCO)c1nc(N)nc2cn(Cc3ccc(CNC4CCOC4(C)C)cc3OC)nc12 (centres unmarked) [Compound 153]	0.615	0.306
CCCCN(CCO)c1nc(N)nc2cn(Cc3c(F)cc(CN[C@H]4CC[C@H](O)CC4)cc3OC)nc12 [Compound 93]	2.58	1.91
CCCCN(CCO)c1nc(N)nc2cn(Cc3ccc(CN[C@H]4C[C@H](OC)C4)n4ccnc34)nc12 [Compound 188]	0.781	1.4
CCCCN(CCO)c1nc(N)nc2cn(Cc3c(F)cc(C4=CCC(N(CCO)CCO)CC4)cc3OC)nc12 (centres unmarked) [Compound 197]	0.57	2.74
CCCCN(CCO)c1nc(N)nc2cn(Cc3ccc(CNC4CCOCC4)c4scnc34)nc12 [Compound 180, 2-((5-Amino-2-((7-(((tetrahydro-2H-pyran-4-yl)amino)methyl)benzo[d]thiazol-4-yl)methyl)-2H-pyrazolo[4,3-d]pyrimidin-7-yl)(butyl)amino)ethan-1-ol]	0.294	0.23
CCCCCN(CCO)c1nc(N)nc2cn(Cc3ccc(CN[C@@H]4CCOC4)cc3OC)nc12 [Compound 70]	1.05	1.06
CCCCN(CCO)c1nc(N)nc2cn(Cc3ccc(CNCCOC)c4nccnc34)nc12 [Compound 208]	1.89	1.27
CCCCN(CCO)c1nc(N)nc2cn(Cc3ccc(CNCC(C)(C)O)cc3OC)nc12 [Compound 9]	1.61	1.25
CCCCN(CCO)c1nc(N)nc2cn(Cc3ccc(CN[C@@H]4CCOC4)cc3OC)nc12 [Compound 85]	0.148	1.97
CCCCN(CCO)c1nc(N)nc2cn(Cc3ccc(CNC4(C)CC4)cc3OC)nc12 [Compound 89]	1.55	0.961
CCCCN(CCO)c1nc(N)nc2cn(Cc3ccc(CNC(C)(C)C)n4ncnc34)nc12 [Compound 189, 2-((5-Amino-2-((5-((tert-butylamino)methyl)-[1,2,4]triazolo[1,5-a]pyridin-8-yl)methyl)-2H-pyrazolo[4,3-d]pyrimidin-7-yl)(butyl)amino)ethan-1-ol]	0.793	0.57
CCCCN(CCO)c1nc(N)nc2cn(Cc3ccc(CN4CCCC4)cc3OC)nc12 [Compound 4]	0.694	0.633
CCCCN(CCO)c1nc(N)nc2cn(Cc3c(F)cc(N4CCC(NC5CC6(COC6)C5)CC4)cc3F)nc12 [Compound 133]	0.513	2.1
CCCCN(CCO)c1nc(N)nc2cn(Cc3ccc(CN[C@H]4C[C@H](OC)C4)c4oc(C)nc34)nc12 [Compound 141, 2-((5-amino-2-((7-((((1r,3r)-3-methoxycyclobutyl)amino)methyl)-2-methylbenzo[d]oxazol-4-yl)methyl)-2H-pyrazolo[4,3-d]pyrimidin-7-yl)(butyl)amino)ethan-1-ol]	0.439	0.421
CCCCN(CCO)c1nc(N)nc2cn(Cc3ccc(CNC4CCOC(C)C4)cc3OC)nc12 (centres unmarked) [Compound 125]	2.25	2.03
CCCCN(CCO)c1nc(N)nc2cn(Cc3ccc(CNC4CCCC4)c4cccnc34)nc12 [Compound 61]	1.5	0.952

Now from value to compound:

EC50 (human TLR7 (hTLR7)) [µM]	EC50 (human TLR8 (hTLR8)) [µM]	SMILES
0.614	0.547	CCCCN(CCO)c1nc(N)nc2cn(Cc3ccc(CN[C@H]4C[C@H]5COC[C@H]54)cc3OC)nc12 [Compound 22]
1.57	0.805	CCCCN(CCO)c1nc(N)nc2cn(Cc3ccc(CNC(C)C)cc3)nc12 [Compound 162]
0.422	1.13	CCCCN(CCO)c1nc(N)nc2cn(Cc3c(F)cc(C4=CC[C@@H](NC5CC6(COC6)C5)CC4)cc3OC)nc12 [Compound 194]
0.741	1.28	CCCCN(CCO)c1nc(N)nc2cn(Cc3c(F)cc(CNC4CCOCC4)cc3OC)nc12 [Compound 74]
1.33	2.11	CCCCN(CCO)c1nc(N)nc2cn(Cc3c(F)cc(CNCC4(CO)CC4)cc3OC)nc12 [Compound 92]
1.22	2.08	CCCCN(CCO)c1nc(N)nc2cn(Cc3c(F)cc(CNC4(CO)CC4)cc3OC)nc12 [Compound 91]
0.396	0.437	CCCCN(CCO)c1nc(N)nc2cn(Cc3c(F)cc(C4CCN(C5CC6(CCC6)C5)CC4)cc3OC)nc12 [Compound 39]
1.7	2.31	CCCCN(CCO)c1nc(N)nc2cn(Cc3ccc(CN[C@H]4CCN(C(C)C)C4)cc3OC)nc12 [Compound 56]
1.41	1.62	CCCCN(CCO)c1nc(N)nc2cn(Cc3ccc(CN4CC5(C4)CN(C(C)C)C5)cc3OC)nc12 [Compound 30]
0.28	0.205	CCCCNCc1ccc(Cn2cc3nc(N)nc(N(CCO)CCCC)c3n2)c2ncccc12 [Compound 45]
1.7	1.9	CCCCN(CCO)c1nc(N)nc2cn(Cc3ccc(CNC4CCOCC4)n4ncnc34)nc12 [Compound 171]
0.757	0.488	CCCCN(CCO)c1nc(N)nc2cn(Cc3ccc(CNC4CCOCC4)c4cccnc34)nc12 [Compound 58]
0.738	0.835	CCCCN(CCO)c1nc(N)nc2cn(Cc3c(F)cc(CNCCO)cc3OC)nc12 [Compound 72]
0.949	1.46	CCCCN(CCO)c1nc(N)nc2cn(Cc3ccc(CO)n4ncnc34)nc12 [Compound 177]
0.541	1.75	CCCCN(CCO)c1nc(N)nc2cn(Cc3c(F)cc(C4CCC(N(C)C5CC6(COC6)C5)CC4)cc3OC)nc12 (centres unmarked) [Compound 195]
1.59	2.13	CCCCN(CCO)c1nc(N)nc2cn(Cc3ccc(CNC4CCN(CCOC)CC4)c4cccnc34)nc12 [Compound 66]
0.805	0.535	CCCCN(CCO)c1nc(N)nc2cn(Cc3ccc(CNC4(C)CCOCC4)cc3OC)nc12 [Compound 88, 2-((5-Amino-2-(2-methoxy-4-(((4-methyltetrahydro-2H-pyran-4-yl)amino)methyl)benzyl)-2H-pyrazolo[4,3-d]pyrimidin-7-yl)(butyl)amino)ethan-1-ol]
